Assay results reported in patent US9839642B2, “Beta-tetrazolyl-propionic acids as metallo-beta-lactamase inhibitors” (priority 2014, dated 2017).
Read-outs that look alike come from different tables or passages of the source.

Legend:
[1] = biological target: IMP-1 (Serratia marcescens, UniProt P52699); test: Enzyme activity: determination of IC50, fluorescence assay with CCF2-FA substrate; format: biochemical; conditions: enzyme 2 pM, CCF2-FA 1.25 μM, 2 hours at 25° C.; read-out: IMP1 IC50
In short: (§1)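 Read-out: fluorescence, ex 405 nm / em 460 nm, after 2 h at 25° C with 1.25 μM CCF2-FA. Buffer 100 mM KH2PO4 pH 7, 0.005% Tween-20, 10 μM ZnSO4; enzyme 1 pM NDM-1, 2 pM IMP-1, 30 pM VIM-1. IC50 by 4-parameter fit.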

[2] = biological target: NDM-1 (Klebsiella pneumoniae, UniProt C7C422); test: as above; format: biochemical; conditions: CCF2-FA 1.25 μM, 2 hours at 25° C.
In short: as §1

[3] = biological target: VIM-1 (Pseudomonas aeruginosa, UniProt A0A0F7KYQ8); test: as above; format: biochemical; conditions: enzyme 30 pM, CCF2-FA 1.25 μM, 2 hours at 25° C.; read-out: VIM1 IC50
In short: as §1

[4] = system: Escherichia coli expressing NDM-1 (CLB30005); test: Antibiotic potentiation activity: synergistic concentration (MITC95) with imipenem, growth by OD600; format: cell-based; conditions: 95% inhibition of bacterial growth, strain CLB30005
In short: (§2)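 Strains grown overnight at 35° C, resuspended in saline, diluted 1:100 into 1.1×CAMHB; imipenem at 1 μg/ml or 4 μg/ml with test compound 200 μM to 0.195 μM. Incubated 22 hours to 24 hours at 35° C, OD600 read; MITC95 is lowest compound concentration inhibiting 95% of growth.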

[5] = system: Klebsiella pneumoniae expressing VIM-1 (IHMA599644); test: as above; format: cell-based; conditions: 95% inhibition of bacterial growth, strain IHMA599644
In short: as §2

[6] = system: Serratia marcescens expressing IMP-1 (CL5741); test: as above; format: cell-based; conditions: 95% inhibition of bacterial growth, strain CL5741
In short: as §2

[7] = enzyme 1 pM, read-out: NDM1 IC50

Sequence of IMP-1 (P52699 19-246, looked up, species assumed): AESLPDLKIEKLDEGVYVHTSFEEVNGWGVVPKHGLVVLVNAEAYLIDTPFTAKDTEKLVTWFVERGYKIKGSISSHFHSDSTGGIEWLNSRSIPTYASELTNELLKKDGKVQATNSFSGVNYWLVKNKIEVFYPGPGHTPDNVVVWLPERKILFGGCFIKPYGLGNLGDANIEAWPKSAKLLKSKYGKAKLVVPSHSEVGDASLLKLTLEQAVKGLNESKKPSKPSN
Sequence of NDM-1 (C7C422 29-270, looked up, species assumed): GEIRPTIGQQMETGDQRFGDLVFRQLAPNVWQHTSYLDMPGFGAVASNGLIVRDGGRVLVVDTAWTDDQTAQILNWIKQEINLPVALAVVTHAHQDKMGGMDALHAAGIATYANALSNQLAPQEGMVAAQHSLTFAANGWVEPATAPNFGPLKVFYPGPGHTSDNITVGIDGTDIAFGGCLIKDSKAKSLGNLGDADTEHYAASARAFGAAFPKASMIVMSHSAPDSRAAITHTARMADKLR

CCC[C@H](C(=O)O)[C@H](Cc1ccc(Cl)nc1)c1nnn[nH]1 [Example 82, (S)-2-((S)-2-(6-chloropyridin-3-yl)-1-(1H-tetrazol-5-yl)ethyl)pentanoic acid]
IC50 [1]: 4600 nM | IC50 [2, 7]: 240 nM | IC50 [3]: 5.7 nM | NDM1 EC30005 MITC95 [4]: 6.2 µM | VIM1 KP599644 MITC95 [5]: 25 µM | IMP1 SM5741 MITC95 [6]: 200 µM

CCC[C@H](C(=O)O)[C@H](Cc1ccc(Cl)cn1)c1nnn[nH]1 [Example 83, (S)-2-((S)-2-(5-chloropyridin-2-yl)-1-(1H-tetrazol-5-yl)ethyl)pentanoic acid]
IC50 [1]: > 20000 nM | IC50 [2, 7]: 880 nM | IC50 [3]: 71 nM | NDM1 EC30005 MITC95 [4]: 8.3 µM | VIM1 KP599644 MITC95 [5]: 100 µM | IMP1 SM5741 MITC95 [6]: >200 µM

CCC[C@H](C(=O)O)[C@H](Cc1ccc(-c2ccc3c(c2)CNC3)nc1)c1nnn[nH]1 [Example 95, 5-(5-((2S,3S)-3-carboxy-2-(1H-tetrazol-5-yl)hexyl)pyridin-2-yl)isoindolin-2-ium]
IC50 [1]: 2500 nM | IC50 [2, 7]: 160 nM | IC50 [3]: 6.5 nM | NDM1 EC30005 MITC95 [4]: 3.1 µM | VIM1 KP599644 MITC95 [5]: 12.5 µM | IMP1 SM5741 MITC95 [6]: 50 µM

CCC[C@H](C(=O)O)[C@H](Cc1ccc(Br)nc1)c1nnn[nH]1 [Example 143]
IC50 [1]: 1700 nM | IC50 [2, 7]: 53 nM | IC50 [3]: 2.6 nM | NDM1 EC30005 MITC95 [4]: 12.5 µM | VIM1 KP599644 MITC95 [5]: 100 µM | IMP1 SM5741 MITC95 [6]: >200 µM

CCC[C@H](C(=O)O)[C@H](Cc1ccc(N2CCNCC2)nc1)c1nnn[nH]1 [Example 145, (S)-2-((S)-2-(6-(piperazin-1-yl)pyridin-3-yl)-1-(1H-tetrazol-5-yl)ethyl)pentanoic acid]
IC50 [1]: 12000 nM | IC50 ([2]; NDM1 IC50, enzyme 1 pM): 700 nM | IC50 [3]: 18 nM | NDM1 EC30005 MITC95 [4]: 6.2 µM | VIM1 KP599644 MITC95 [5]: 75 µM | IMP1 SM5741 MITC95 [6]: 200 µM

CCC[C@H](C(=O)O)[C@H](Cc1ccc(-c2c(C)nn(C)c2C)nc1)c1nnn[nH]1 [Example 158, (S)-2-((S)-1-(1H-tetrazol-5-yl)-2-(6-(1,3,5-trimethyl-1H-pyrazol-4-yl)pyridin-3-yl)ethyl)pentanoic acid]
IC50 [1]: 61 nM | IC50 [2, 7]: 14 nM | IC50 [3]: 25 nM | NDM1 EC30005 MITC95 [4]: 62 µM | VIM1 KP599644 MITC95 [5]: 100 µM | IMP1 SM5741 MITC95 [6]: 12.5 µM

CCCC[C@@H](C(=O)O)[C@@H](Cc1ccc(-c2ccc(S(N)(=O)=O)cc2)cc1)c1nn[nH]n1 [Example 184, (2R)-2-[(1R)-2-(4′-sulfamoylbiphenyl-4-yl)-1-(2H-tetrazol-5-yl)ethyl]hexanoic acid]
IC50 [1]: 200 nM | IC50 [2, 7]: 900 nM | IC50 [3]: 300 nM | NDM1 EC30005 MITC95 [4]: >200 µM | VIM1 KP599644 MITC95 [5]: >200 µM | IMP1 SM5741 MITC95 [6]: 100 µM

CCCC[C@@H](C(=O)O)[C@@H](Cc1ccc(-c2c(C)nn(C)c2C)cc1)c1nn[nH]n1 [Example 185, (2R)-2-{(1R)-1-(2H-tetrazol-5-yl)-2-[4-(1,3,5-trimethyl-1H-pyrazol-4-yl)phenyl]ethyl}hexanoic acid]
IC50 [1]: 11 nM | IC50 [2, 7]: 880 nM | IC50 [3]: 740 nM | NDM1 EC30005 MITC95 [4]: >200 µM | VIM1 KP599644 MITC95 [5]: >200 µM | IMP1 SM5741 MITC95 [6]: 100 µM

CCCC[C@@H](C(=O)O)[C@@H](Cc1ccc(-c2cn[nH]c2)cc1)c1nn[nH]n1 [Example 186, (2R)-2-[(1R)-2-[4-(1H-pyrazol-4-yl)phenyl]-1-(2H-tetrazol-5-yl)ethyl]hexanoic acid]
IC50 [1]: 140 nM | IC50 [2, 7]: 750 nM | IC50 [3]: 60 nM | NDM1 EC30005 MITC95 [4]: 200 µM | VIM1 KP599644 MITC95 [5]: >200 µM | IMP1 SM5741 MITC95 [6]: 12.5 µM

CCCC[C@@H](C(=O)O)[C@@H](Cc1ccc(-c2cnn(-c3ccccc3)c2)cc1)c1nn[nH]n1 [Example 187, (2R)-2-[(1R)-2-[4-(1-phenyl-1H-pyrazol-4-yl)phenyl]-1-(2H-tetrazol-5-yl)ethyl]hexanoic acid]
IC50 [1]: 180 nM | IC50 [2, 7]: 980 nM | IC50 [3]: 140 nM | NDM1 EC30005 MITC95 [4]: >200 µM | VIM1 KP599644 MITC95 [5]: >200 µM | IMP1 SM5741 MITC95 [6]: 103 µM

CCCC[C@@H](C(=O)O)[C@@H](Cc1ccc(-c2ccccc2)cc1)c1nn[nH]n1 [Example 188, (2R)-2-[(1R)-2-biphenyl-4-yl-1-(2H-tetrazol-5-yl)ethyl]hexanoic acid]
IC50 [1]: 140 nM | IC50 [2, 7]: 640 nM | IC50 [3]: 180 nM | NDM1 EC30005 MITC95 [4]: >200 µM | VIM1 KP599644 MITC95 [5]: >200 µM | IMP1 SM5741 MITC95 [6]: 53 µM

CCC[C@H](C(=O)O)[C@H](Cc1ccc(-c2ccc(N(C)C)nc2)cc1)c1nn[nH]n1 [Example 189, (2S)-2-[(1S)-2-{4-[6-(dimethylamino)pyridin-3-yl]phenyl}-1-(2H-tetrazol-5-yl)ethyl]pentanoic acid]
IC50 [1]: 29 nM | IC50 [2, 7]: 13 nM | IC50 [3]: 4.3 nM | NDM1 EC30005 MITC95 [4]: 2.3 µM | VIM1 KP599644 MITC95 [5]: 100 µM | IMP1 SM5741 MITC95 [6]: 7.8 µM

CCC[C@H](C(=O)O)[C@H](Cc1ccc(-c2cncc(N3CCN(C)CC3)c2)cc1)c1nn[nH]n1 [Example 190, (2S)-2-[(1S)-2-{4-[5-(4-methylpiperazin-1-yl)pyridin-3-yl]phenyl}-1-(2H-tetrazol-5-yl)ethyl]pentanoic acid]
IC50 [1]: 610 nM | IC50 [2, 7]: 110 nM | IC50 [3]: 5.4 nM | NDM1 EC30005 MITC95 [4]: 9.4 µM | VIM1 KP599644 MITC95 [5]: 75 µM | IMP1 SM5741 MITC95 [6]: 38 µM

CCC[C@H](C(=O)O)[C@H](Cc1ccc(-c2cncc(CN3CCCCC3)c2)cc1)c1nn[nH]n1 [Example 191, (2S)-2-[(1S)-2-{4-[5-(piperidin-1-ylmethyl)pyridin-3-yl]phenyl}-1-(2H-tetrazol-5-yl)ethyl]pentanoic acid]
IC50 [1]: 1100 nM | IC50 [2, 7]: 260 nM | IC50 [3]: 8.3 nM | NDM1 EC30005 MITC95 [4]: 25 µM | VIM1 KP599644 MITC95 [5]: 62 µM | IMP1 SM5741 MITC95 [6]: 62 µM

CCC[C@H](C(=O)O)[C@H](Cc1ccc(-c2ccc(C(C)N3CCOCC3)cc2)cc1)c1nn[nH]n1 (stereo partly drawn) [Example 192, (2S)-2-[(1S)-2-[4′-(1-morpholin-4-ylethyl)biphenyl-4-yl]-1-(2H-tetrazol-5-yl)ethyl]pentanoic acid]
IC50 [1]: 45 nM | IC50 [2, 7]: 29 nM | IC50 [3]: 29 nM | NDM1 EC30005 MITC95 [4]: 7.8 µM | VIM1 KP599644 MITC95 [5]: 200 µM | IMP1 SM5741 MITC95 [6]: 9.4 µM

CCC[C@H](C(=O)O)[C@H](Cc1ccc(-c2ccc3c(c2)CCC(N)C3)cc1)c1nn[nH]n1 (stereo partly drawn) [Example 193, (2S)-2-[(1S)-2-[4-(6-amino-5,6,7,8-tetrahydronaphthalen-2-yl)phenyl]-1-(2H-tetrazol-5-yl)ethyl]pentanoic acid]
IC50 [1]: 45 nM | IC50 [2, 7]: 58 nM | IC50 [3]: 18 nM | NDM1 EC30005 MITC95 [4]: 4.7 µM | VIM1 KP599644 MITC95 [5]: 50 µM | IMP1 SM5741 MITC95 [6]: 6.2 µM

CCC[C@H](C(=O)O)[C@H](Cc1ccc(-c2cccc(OC3CCNCC3)n2)cc1)c1nn[nH]n1 [Example 194, (2S)-2-[(1S)-2-{4-[6-(piperidin-4-yloxy)pyridin-2-yl]phenyl}-1-(2H-tetrazol-5-yl)ethyl]pentanoic acid]
IC50 [1]: 640 nM | IC50 [2, 7]: 170 nM | IC50 [3]: 6.7 nM | NDM1 EC30005 MITC95 [4]: 27 µM | VIM1 KP599644 MITC95 [5]: 50 µM | IMP1 SM5741 MITC95 [6]: 75 µM

CCC[C@H](C(=O)O)[C@H](Cc1ccc(-c2cccc(C3CCCNC3)c2)cc1)c1nn[nH]n1 (stereo partly drawn) [Example 195, (2S)-2-[(1S)-2-(3′-piperidin-3-ylbiphenyl-4-yl)-1-(2H-tetrazol-5-yl)ethyl]pentanoic acid]
IC50 [1]: 110 nM | IC50 [2, 7]: 85 nM | IC50 [3]: 11 nM | NDM1 EC30005 MITC95 [4]: 4.7 µM | VIM1 KP599644 MITC95 [5]: 38 µM | IMP1 SM5741 MITC95 [6]: 28 µM

CCC[C@H](C(=O)O)[C@H](Cc1ccc(-c2cnc(N3CCCC3)s2)cc1)c1nn[nH]n1 [Example 196, (2S)-2-[(1S)-2-[4-(2-pyrrolidin-1-yl-1,3-thiazol-5-yl)phenyl]-1-(2H-tetrazol-5-yl)ethyl]pentanoic acid]
IC50 [1]: 45 nM | IC50 [2, 7]: 9.5 nM | IC50 [3]: 4.1 nM | NDM1 EC30005 MITC95 [4]: 7.8 µM | VIM1 KP599644 MITC95 [5]: 125 µM | IMP1 SM5741 MITC95 [6]: 14 µM

CCC[C@H](C(=O)O)[C@H](Cc1ccc(-c2ccc(S(N)(=O)=O)cc2)cc1)c1nn[nH]n1 [Example 197, (2S)-2-[(1S)-2-(4′-sulfamoylbiphenyl-4-yl)-1-(2H-tetrazol-5-yl)ethyl]pentanoic acid]
IC50 [1]: 28 nM | IC50 [2, 7]: 4.9 nM | IC50 [3]: 0.89 nM | NDM1 EC30005 MITC95 [4]: 4.7 µM | VIM1 KP599644 MITC95 [5]: 18.8 µM | IMP1 SM5741 MITC95 [6]: 14 µM

CCC[C@H](C(=O)O)[C@H](Cc1ccc(-c2ccncc2)cc1)c1nn[nH]n1 [Example 198, (2S)-2-[(1S)-2-(4-pyridin-4-ylphenyl)-1-(2H-tetrazol-5-yl)ethyl]pentanoic acid]
IC50 [1]: 75 nM | IC50 [2, 7]: 14 nM | IC50 [3]: 1.2 nM | NDM1 EC30005 MITC95 [4]: 6.2 µM | VIM1 KP599644 MITC95 [5]: 18.8 µM | IMP1 SM5741 MITC95 [6]: 6.2 µM
